In BindingDB's records for doi:10.1021/jm070645a (Rockefeller University, 2007) one finds IC50 data, which are given here for two compounds.

pIC50: −log10 of the molar value.

This assay concerns the target Mitogen-activated protein kinase 1 (Homo sapiens, UniProt P28482). Description: Radiological Kinase Inhibition Assay. The settings on record: pH 7.5; 22 °C. On the procedure:
Kinase activity was assayed for autophosphorylation and phosphorylation of MBP with radio-labeled gamma-32P. IC50 values were calculated from binding curves using LSW Data Analysis Tool Box version 1.1.1 in MicroSoft Excel.

Sequence of Mitogen-activated protein kinase 1 (P28482 whole entry): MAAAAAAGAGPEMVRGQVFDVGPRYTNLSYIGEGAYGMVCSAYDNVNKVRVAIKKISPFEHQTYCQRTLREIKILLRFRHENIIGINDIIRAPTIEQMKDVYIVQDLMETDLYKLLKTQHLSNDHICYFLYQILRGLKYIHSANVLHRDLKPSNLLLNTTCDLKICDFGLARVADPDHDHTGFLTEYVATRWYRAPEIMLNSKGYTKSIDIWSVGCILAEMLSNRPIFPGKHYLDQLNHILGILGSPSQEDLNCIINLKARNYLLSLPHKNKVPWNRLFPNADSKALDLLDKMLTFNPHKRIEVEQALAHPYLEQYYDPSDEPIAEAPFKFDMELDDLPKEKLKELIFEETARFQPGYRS

The pIC50 is −log10 of the IC50, conventionally taken in molar units. A high value points to a low IC50. Compound `O=C1NC(=O)C(=Cc2ccc(Sc3ccc(Cl)cc3)c([N+](=O)[O-])c2)C(=O)N1` [5-({4-[(4-chlorophenyl)sulfanyl]-3-nitrophenyl}methylidene)pyrimidine-2,4,6(1H,3H,5H)-trione] gave a pIC50 of 4.28.
As for `O=C1c2ccccc2C(=O)c2cc(S(=O)(=O)Nc3cccc([N+](=O)[O-])c3)ccc21` [N-(3-nitrophenyl)-9,10-dioxo-9,10-dihydroanthracene-2-sulfonamide], the figure is less than 3.70.
